Laboratory results published in PMC9945734 (BMC Medicine, 2023).

How the values were obtained:
[1] = by inhibiting RANKL-induced osteoclastogenesis; cited from earlier work
DU 145-KQ cells = test: Clone formation assay; format: cell-based, human; settings: 0-20 μM, 8 days
Experimental: (§1) PC-3-KQ and DU 145-KQ cells were seeded onto 6-well plates at 1 × 10^3 cells/well. After incubation for 24 h, PC-3-KQ cells were treated with NTZ at 0, 1.25, 2.5, and 5 μM, while DU 145-KQ cells were treated with NTZ at 0, 5, 10, and 20 μM for 8 days. The drug-containing medium was replaced every 2 days. On the 8th day, cells were rinsed with cold PBS, fixed with 4% paraformaldehyde for 10 min, stained with purple crystal for 10 min, and photographed, and the images were analyzed using the Image J software.

PC-3-KQ cells = test: Clone formation assay; format: cell-based, human; settings: 0-5 μM, 8 days
Experimental: as §1

MYBL2 = MYBL2 expression by qRT-PCR and western blotting; format: cell-based, human; settings: PC-3 and DU 145 cells expressing KLF5^K369Q; dose- or time-dependent
Experimental: (§2) Total RNA was extracted from cells using the Eastep Super total RNA extraction kit (Cat #: LS1040, Promega, Shanghai, China) and quantified using the NanoDrop One (Thermo Fisher Scientific, Madison, USA). Single-strand cDNA was synthesized from 1 μg of total RNA using the HiScript III All-in-one RT SuperMix kit (Cat #: R333-01, Vazyme, Nanjing, China). For qRT-PCR, the cDNA template was mixed with the SYBR Green reagent in enzyme-free water, and the Qtower3 touch system (Analytik Jena, Jena, Germany) was used for PCR with the following program: initial denaturation at 95°C for 5 min, 40 cycles of 95°C for 30 s, 60°C for 30 s, and 72 °C for 30 s, and a final melting for 15 s. GAPDH was used as an internal control. […].
(§3) Cells in 6-well plates were washed with cold PBS and collected in a lysis buffer containing phosphatase and protease inhibitors (Cat #: P1045, Beyotime) to extract proteins. After centrifugation for 10 min at 4°C in a refrigerated centrifuge, the supernatant was collected and mixed with the 4× loading buffer, boiled in a metal heat bath at 100°C for 10 min, and then subjected to 10% SDS-PAGE. Proteins were transferred onto an activated PVDF membrane (0.45 μm pore-size, Cat #: IPVH00010, Millipore, Carrigtwohill, Ireland). […]

[2] = test system: RAW264.7 cells co-cultured with PC-3-KQ cells; test: Osteoclast differentiation in co-culture of RAW264.7 and PC-3-KQ cells; format: cell-based; settings: 1.25, 2.5, 5 μM, 7 days
Experimental: The third in vitro assay involved direct co-culture between RAW264.7 cells and cancer cells. RAW264.7 cells were seeded in 96-well plates at 700 cells per well and allowed to adhere for 12 h. PC-3-KQ cells were added to each well at 300 cells/well, and the culture continued for 12 h. NTZ was added to treat cells for 48 h at various final concentrations (0, 1.25, 2.5, 5 μM). The RAW264.7 medium was mixed with the PC-3 medium at 7:3, and the mixture was used to replace the culture medium every 2 days. After 7 days, the osteoclast differentiation was determined as described above.

MYBL2 promoter = test: ChIP assay of KLF5 binding to the MYBL2 promoter; format: cell-based, human; settings: PC-3-KQ cells treated for 48 h
Experimental: ChIP assay was performed using the SimpleChIP Enzymatic Chromatin IP kit (Cat #: 9003s, Cell Signaling Technology) according to the manufacturer's instructions. Briefly, cells were treated with 1% formaldehyde for 10 min for cross-linking, quenched with glycine for 5 min at room temperature, collected, and digested with micrococcal nuclease for 20 min at 37°C. After stopping the reaction by adding EDTA, DNA was fragmented by sonication, and the extracts were incubated with KLF5 antibody (Cat #: 21017-1-AP, Proteintech) or IgG (Cat #: 2729P, Cell Signaling Technology). […]

RAW264.7 cells [3] = test: CCK-8 cell viability assay; format: cell-based; settings: concentrations smaller than 25 μM; 48 h
Experimental: According to the manufacturer's instructions, cell viability was measured using a kit from Beyotime Biotechnology. Briefly, cells were seeded onto 96-well plates at 5 × 10^3 cells per well, incubated overnight, and then treated for 48 h with drugs at 0, 0.02, 0.05, 0.14, 0.41, 1.23, 3.7, 11.1, 33.3, and 100 μM. […] At the end of drug treatment, the medium was removed, the CCK-8 solution was added into each well at 100 μL/well and incubated for 1.5 h at 37°C, and the optical density (OD) was measured at 450 nm using a microplate reader (BioTek).

MMP9 = MMP9 expression by western blotting and qRT-PCR; format: cell-based, human; settings: KLF5^K369Q-expressing cells (PC-3-KQ)
Experimental: as §2, §3

RAW264.7 cells [4] = test: Osteoclast differentiation with conditioned medium from NTZ-treated PC-3-KQ cells; format: cell-based; settings: CM from PC-3-KQ cells treated at 2.5 or 5 μM for 36 h; RANKL 10 ng/mL; 7 days
Experimental: In the second in vitro assay, we used conditioned medium (CM) from NTZ-treated Ac-KLF5-expressing cells. PC-3-KQ cells were seeded in 6-well plates at 1 × 10^5 cells per well and cultured overnight. […] Subsequently, the conditioned media (CM) was collected from each group, centrifugated, filtered, aliquoted, and stored at -80°C for further use or used immediately in the co-cultured experiments. […] RAW264.7 cells in 96-well plates with 24-h culture were incubated with the CM-containing medium for 7 days, with the medium replaced every 2 days. The TRAP staining assay was performed to determine the number of differentiated osteoclasts according to the manufacturer's instructions.

In the case of `CC(=O)Oc1ccccc1C(=O)Nc1ncc([N+](=O)[O-])s1` [Nitazoxanide], the “bone loss in ovariectomized mice” value [1] is given as “reduces bone loss”, the colony number (DU 145-KQ cells) is given as “reduced colony number” and the colony number (PC-3-KQ cells) is given as “reduced colony number”. For the same compound, the “expression of MYBL2 (mRNA and protein)” value (MYBL2) was “reduced the expression of MYBL2”, the “number of TRAP^+ multinucleated cells” value [2] was “significantly decreased” and the “KLF5^K369Q-bound DNA of MYBL2 promoter (-1242 to -1251)” value (MYBL2 promoter) was “significantly decreased KLF5^K369Q-bound DNA”. The “cytotoxicity (cell viability)” value (RAW264.7 cells [3]) was “did not exhibit detectable cytotoxicity”, the “MMP9 expression (protein and mRNA)” value (MMP9) was “decreased MMP9 expression in a dose-dependent manner” and the “number of TRAP^+ multinucleated cells” value (RAW264.7 cells [4]) was “significantly reduced”.
